Holding throughout (assay): inhibition of tumour cell growth, NCI panel, 48 h
The test system of experiment [1] is HCT-116 colon.
The test system of experiment [2] is HT29 colon.
The test system of experiment [3] is M14 melanoma.
Experiment [4] relates to MALME-3M melanoma.
Experiment [5] relates to NCI-H522 lung.
Experiment [6] deals with OVCAR-5 ovarian.
Experiment [7] has as its system RPMI-8226 leukemia.
The test system of experiment [8] is SF-539 CNS.
For experiment [9], the system named is SW-620 colon.
For experiment [10], the system named is T-47D breast.

Here are results for 8 compounds from PubChem BioAssay (NCI).

Values joined by “and” are separate entries in the source; they are usually repeats but may differ in a detail not shown here. Equal values may be shown once.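 Exposure lasted 48 hours, with cells grown in 96-well plates and compounds tested at five concentrations. Abbreviation: GI50, concentration required for 50% inhibition of growth. Definition used: TGI = concentration required for complete inhibition of growth.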

Take `COc1ccc(-n2nc(C)c3c(Nc4ccc(NC(=O)Nc5cccc(C(F)(F)F)c5)cc4)ncnc32)cc1`: the GI50 is 1.62 µM in [1]; 1.77 µM in experiment [2]; 1.54 µM in [3]; 1.59 µM in [4]; 1.6 µM in experiment [5]; 1.76 µM in experiment [6]. The GI50 is 1.78 µM in experiment [7], 1.28 µM in experiment [8], 2.14 µM in experiment [9] and 1.64 µM in experiment [10]. In addition, the TGI in [1] was 3.46 µM; in experiment [2] it was 3.96 µM; in experiment [3], 3.36 µM; in [4], 3.31 µM; in experiment [5] it was 3.8 µM; in experiment [6], 4.12 µM. Moreover, the TGI in experiment [7] came out at 4.69 µM; in experiment [8] it was 2.66 µM; in experiment [9], 5.18 µM; in [10], 4.84 µM.
As for `CN(C)Cc1ccc(NC(=O)c2cncc(C#Cc3cnc(N)c4ncccc34)c2)cc1C(F)(F)F`, the GI50 in experiment [1] is 1.08 µM; in experiment [2] it was 0.133 µM; in experiment [3], 0.0802 µM; in experiment [4], 0.104 µM; in [5], 1.93 µM; in experiment [6], 1.27 µM. In addition, the GI50 in experiment [7] is 1.24 µM; in experiment [8], 1.36 µM; in experiment [9], 1.5 µM; in experiment [10] it was 15.8 µM. The TGI was 2.33 µM in experiment [1]; 1.86 µM in experiment [2]; 1.33 µM in [3]; 0.956 µM in experiment [4]; 4.07 µM in [5]; 2.6 µM in experiment [6]. In addition, the TGI in experiment [7] was determined as 3.58 µM; in [8], 2.66 µM; in experiment [9] it was 2.98 µM; in [10] it was 65.3 µM.
In the case of `CN1CCN(C2=C(Cl)C(=O)c3ccccc3C2=O)CC1`, the GI50 in experiment [1] is 1.42 µM; in [2], 1.94 µM; in experiment [3] it was 1.78 µM; in [4], 1.81 µM; in experiment [5] it was 0.38 µM; in experiment [6] it was 2.03 µM. In addition, the GI50 in experiment [7] was 3.09 µM; in experiment [8], 2.08 µM; in experiment [9], 1.67 µM; in experiment [10], 0.789 µM. The TGI in experiment [1] turned out to be 2.75 µM; in experiment [2], 3.7 µM; in [3], 3.23 µM; in experiment [4] it was 3.51 µM; in experiment [5] it was 1.64 µM; in [6] it was 4.18 µM. Besides, the TGI is 9.61 µM in [7], 4.47 µM in [8], 3.23 µM in [9] and 2.73 µM in [10].
In the case of `COc1ccc(-c2cn(C)c3c2-n2cccc2C3=O)cc1O`, the GI50 in experiment [1] is 11.1 µM; in experiment [2], 18 µM; in [3], 6.57 µM; in [4] it was 1.77 µM; in experiment [5], 10.1 µM; in experiment [6], 5.74 µM. Moreover, the GI50 in experiment [7] was 2.05 µM; in experiment [8], 1.76 µM; in experiment [9], 6.9 µM; in [10], 4.78 µM. For the same compound, the TGI in [1] is 26.5 µM; in experiment [2], more than 100 µM; in experiment [3] it was 20.3 µM; in [4] it was 9.28 µM; in experiment [5], 40.8 µM; in experiment [6] it was 25.2 µM. Further, the TGI in experiment [7] was 17.5 µM; in experiment [8] it was 16.5 µM; in [9], more than 100 µM; in experiment [10] it was 28.9 µM.
Turning to `N[C@H]1CCC[C@@H](O)C1O` (some centres undefined), the TGI in [1], in experiment [2], in experiment [3], in experiment [4], in [5] and in [6] was more than 100 µM throughout. Besides, the TGI in experiment [7], in [8], in experiment [9] and in experiment [10] was more than 100 µM each time.
Consider `CCC/C=C/C=C/C(=O)OC1/C(=C/C(=O)OC)CC2CC(C(C)O)OC(=O)CC(O)CC3CC(OC(C)=O)C(C)(C)C(O)(CC4C/C(=C/C(=O)OC)CC(/C=C/C(C)(C)C1(O)O2)O4)O3` (centres undefined), for which the GI50 in [1] is > 10.9 µM and 5.2 µM and > 12.5 µM; in [2], > 10.9 µM and 5.12 µM and > 12.5 µM; in experiment [4] it was 5.71 µM and > 12.5 µM; in [5], more than 11 µM; in experiment [6], more than 11 µM; in [7], 8.95 µM and > 12.5 µM. Moreover, the GI50 was more than 11 µM in experiment [8]; > 10.9 µM and 2.99 µM and > 12.5 µM in experiment [9]; more than 12.5 µM in experiment [10]. Besides, the TGI in experiment [1] was > 10.9 µM and 11 µM and > 12.5 µM; in experiment [2] it was > 10.9 µM and 10.8 µM and > 12.5 µM; in experiment [3], more than 11 µM; in experiment [4], 11 µM and > 12.5 µM; in [5], more than 12.5 µM; in experiment [6], more than 12.5 µM. Further, the TGI was > 10.9 µM and 11 µM and > 12.5 µM in experiment [7]; more than 12.5 µM in experiment [8]; > 10.9 µM and 4.91 µM and > 12.5 µM in experiment [9]; 11 µM and > 12.5 µM in experiment [10].
For `NC(CSC(c1ccccc1)(c1ccccc1)c1ccccc1)C(=O)O` (centres undefined), the GI50 in experiment [1] is 0.512 µM and 0.425 µM; in experiment [2], 3.71 µM and 3.28 µM; in experiment [3], 0.426 µM and 0.389 µM; in [4], 1.33 µM and 5.62 µM; in experiment [5], 0.524 µM and 0.413 µM; in experiment [6], 4.28 µM. For the same compound, the GI50 in [7] was 3.53 µM and 0.501 µM; in [8] it was 0.874 µM and 0.459 µM; in experiment [9], 1.64 µM and 0.968 µM; in [10], 3.46 µM. Also, the TGI in experiment [1] was 55.3 µM and 64.2 µM and > 100 µM; in experiment [2], 27.3 µM and 14.6 µM; in experiment [3], 6.01 µM and 16.2 µM and 27.5 µM; in experiment [4], 49.2 µM and 39.2 µM and > 100 µM; in experiment [5], 2.2 µM and 7.13 µM and 4.28 µM; in experiment [6] it was 89.4 µM and > 100 µM. Also, the TGI in experiment [7] is 37.3 µM and 22.4 µM and 20.7 µM; in [8], 10.6 µM and 3.01 µM and 3.26 µM; in experiment [9], 107 µM and > 100 µM; in [10] it was 54.9 µM and 53.4 µM.
As for `COc1ccc([N+](=O)[O-])c2c(NCCCN(C)C)c(C)c(C)nc12`, the TGI in [1], in experiment [2], in [3], in experiment [4], in experiment [5] and in experiment [6] was more than 100 µM in each case. Also, the TGI in experiment [7], in experiment [8], in [9] and in [10] was more than 100 µM throughout.
